Like-named read-outs stand apart in the source and are kept apart here.
Assays:
Rhesus PDE2A3 = Rhesus PDE2A3 (Macaca mulatta, UniProt B3VTJ2); assay: PDE2 fluorescence polarization (IMAP FP) inhibition assay, rhesus PDE2A3; type: biochemical, rhesus macaque
Method: A Labcyte Echo 555 (Labcyte, Sunnyvale, Calif.) is used to dispense 200 nL from each well of the titration plate to the 384 well assay plate. Ten microliters of a solution of enzyme (1/2000 final dilution from aliquots; sufficient to produce 20% substrate conversion) was added to the assay plate. Next 10 uL of a separate solution of the substrate FAM-labeled cAMP (50 nM final concentration product # R^7506 from Molecular Devices) and the activator cGMP (1 uM final concentration), prepared in the assay buffer (10 mM Tris HCl, pH 7.2, 10 mM MgCl2, 0.05% NaN3 0.01% Tween-20, and 1 mM DTT) was added to the assay plate and shaken to mix. The reaction is allowed to proceed at room temperature for 60 minutes. A binding solution is then made from the kit components, comprised of 80% Solution A, 20% Solution B and binding reagent at a volume of 1/600 the total binding solution. The enzymatic reaction is stopped by addition of 60 μL of the binding solution to each well of the assay plates and the plates are sealed and shaken for 30 seconds. The plate was incubated at room temperature for at least one hour prior to determining the fluorescence polarization (FP). The parallel and perpendicular fluorescence of each well of the plate was measured using a Tecan Genios Pro plate reader (Tecan, Switzerland) or Perkin Elmer EnVision™ plate reader (Waltham, Mass.). Fluorescence polarization (mP) was calculated from the parallel (S) and perpendicular (P) fluorescence of each sample well and the analogous values for the median control well, containing only substrate (So and Po), using the following equation: Polarization (mP)=1000*(S/So−P/Po)/(S/So+P/Po).
Dose-inhibition profiles for each compound were characterized by fitting the mP data to a four-parameter equation given below.
An apparent (KM) for FAM-labeled cAMP of ˜10 uM was used.

human PDE2A1 = human PDE2A1 (Homo sapiens (Human), UniProt O00408); assay: PDE2 IMAP FP inhibition assay, human PDE2A1 (selectivity panel format); type: biochemical
human PDE2A1, sequence (O00408 other isoform, or with tags, fused parts or gaps): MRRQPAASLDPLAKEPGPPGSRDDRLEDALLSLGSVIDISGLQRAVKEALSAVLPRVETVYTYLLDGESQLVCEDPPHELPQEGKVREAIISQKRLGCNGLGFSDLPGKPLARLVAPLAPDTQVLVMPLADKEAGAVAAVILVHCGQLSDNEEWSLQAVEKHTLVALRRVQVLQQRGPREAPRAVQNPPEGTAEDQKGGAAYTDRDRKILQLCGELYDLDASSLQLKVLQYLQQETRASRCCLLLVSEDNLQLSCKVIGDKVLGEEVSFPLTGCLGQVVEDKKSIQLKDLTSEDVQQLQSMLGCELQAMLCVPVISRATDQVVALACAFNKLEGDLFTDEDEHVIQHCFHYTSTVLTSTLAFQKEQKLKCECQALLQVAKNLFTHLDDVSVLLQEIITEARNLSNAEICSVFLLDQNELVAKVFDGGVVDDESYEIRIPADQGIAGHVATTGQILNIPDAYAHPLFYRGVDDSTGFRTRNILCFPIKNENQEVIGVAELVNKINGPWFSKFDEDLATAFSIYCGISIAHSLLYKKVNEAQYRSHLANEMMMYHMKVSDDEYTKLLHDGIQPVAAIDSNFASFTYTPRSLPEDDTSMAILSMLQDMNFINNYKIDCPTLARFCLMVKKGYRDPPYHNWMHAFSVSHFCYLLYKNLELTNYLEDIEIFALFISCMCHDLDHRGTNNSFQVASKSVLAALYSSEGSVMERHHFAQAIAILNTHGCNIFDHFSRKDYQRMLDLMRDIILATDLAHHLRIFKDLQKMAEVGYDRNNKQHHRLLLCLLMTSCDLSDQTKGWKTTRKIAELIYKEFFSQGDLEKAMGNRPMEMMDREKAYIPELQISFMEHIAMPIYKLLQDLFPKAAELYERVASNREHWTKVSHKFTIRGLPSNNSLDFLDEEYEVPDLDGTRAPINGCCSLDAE
Outline: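 Enzyme dosed to give about 20% substrate turnover acts for 60 min at room temperature on 50 nM FAM-cAMP plus 1000 nM cGMP (Tris pH 7.2, MgCl2, DTT, Tween-20 buffer). IMAP binding solution then stops the reaction; after 1 h, polarization is measured from parallel and perpendicular fluorescence.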

[1] = Lab A, read-out: Rhesus PDE2 Ki (nM) - Lab A
[2] = Lab A, read-out: Human PDE2 Ki (nM) - Lab A
[3] = Lab B, read-out: Rhesus PDE2 Ki (nM) - Lab B
[4] = Lab B, read-out: Human PDE2 Ki (nM) - Lab B

Rhesus PDE2A3, sequence (B3VTJ2 1-941): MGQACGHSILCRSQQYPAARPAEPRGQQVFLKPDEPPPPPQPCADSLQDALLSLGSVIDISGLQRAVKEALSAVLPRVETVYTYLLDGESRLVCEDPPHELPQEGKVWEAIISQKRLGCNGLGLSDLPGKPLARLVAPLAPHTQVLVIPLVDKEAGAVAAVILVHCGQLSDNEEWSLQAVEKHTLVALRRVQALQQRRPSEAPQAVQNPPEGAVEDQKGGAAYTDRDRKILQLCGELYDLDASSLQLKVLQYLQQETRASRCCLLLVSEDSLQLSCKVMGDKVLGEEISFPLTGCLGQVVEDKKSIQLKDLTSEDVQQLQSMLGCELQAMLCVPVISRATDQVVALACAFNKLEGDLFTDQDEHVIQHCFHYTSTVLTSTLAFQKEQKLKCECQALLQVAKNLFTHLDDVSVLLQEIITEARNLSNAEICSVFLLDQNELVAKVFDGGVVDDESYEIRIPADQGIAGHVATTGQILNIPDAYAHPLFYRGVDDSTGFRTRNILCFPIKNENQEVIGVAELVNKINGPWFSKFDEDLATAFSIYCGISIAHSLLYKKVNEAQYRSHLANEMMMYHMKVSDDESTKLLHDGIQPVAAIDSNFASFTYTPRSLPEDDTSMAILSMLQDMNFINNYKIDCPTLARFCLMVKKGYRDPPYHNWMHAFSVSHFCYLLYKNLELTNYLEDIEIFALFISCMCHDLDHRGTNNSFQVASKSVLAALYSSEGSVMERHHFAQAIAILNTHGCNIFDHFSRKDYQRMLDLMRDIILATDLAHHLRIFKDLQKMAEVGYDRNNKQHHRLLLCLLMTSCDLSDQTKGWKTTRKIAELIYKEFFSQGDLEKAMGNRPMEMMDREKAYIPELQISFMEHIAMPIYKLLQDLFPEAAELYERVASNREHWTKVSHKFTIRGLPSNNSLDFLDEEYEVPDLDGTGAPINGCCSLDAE

SMILES	Ki (Rhesus PDE2A3; [1]) [nM]	Ki (human PDE2A1; [2]) [nM]	Ki (Rhesus PDE2A3; [3]) [nM]	Ki (human PDE2A1; [4]) [nM]
CSc1nc(C(=O)N[C@H](C)c2ccc(C(F)(F)F)cc2)cc(=O)[nH]1 [Example 15, (R)-2-(methylthio)-6-oxo-N-(1-(4-(trifluoromethyl)phenyl)ethyl)-1,6-dihydropyrimidine-4-carboxamide]	46	31		
COc1nc(C(=O)N[C@H](C)c2ccc(C(F)(F)F)cc2)cc(=O)[nH]1 [Example 17, (R)-2-methoxy-6-oxo-N-(1-(4-(trifluoromethyl)phenyl)ethyl)-1,6-dihydropyrimidine-4-carboxamide]	130	115		
CCOc1nc(C(=O)N[C@H](C)c2ccc(C(F)(F)F)cc2)cc(=O)[nH]1 [Example 18, (R)-2-ethoxy-6-oxo-N-(1-(4-(trifluoromethyl)phenyl)ethyl)-1,6-dihydropyrimidine-4-carboxamide]	63	72		
COc1ccc(Oc2nc(C(=O)N[C@H](C)c3ccc(C(F)(F)F)cc3)cc(=O)[nH]2)cc1OC [Example 22, (R)-2-(3,4-dimethoxyphenoxy)-6-oxo-N-(1-(4-(trifluoromethyl)phenyl)ethyl)-1,6-dihydropyrimidine-4-carboxamide]	727	988		
C[C@@H](NC(=O)c1cc(=O)[nH]c(N2CC(F)(F)C2)n1)c1ccc(C(F)(F)F)cc1 [Example 24, 2-(3,3-Difluoroazetidin-1-yl)-6-oxo-N-{(1R)-1-[4-(trifluoromethyl)phenyl]ethyl}-1,6-dihydropyrimidine-4-carboxamide]	79	40		
O=C(N[C@@H](c1ccc(OC(F)(F)F)c(F)c1)C1CC1)c1cc(=O)[nH]c(N2CCCC2)n1 [Example 25, N-{(R)-cyclopropyl[3-fluoro-4-(trifluoromethoxy)phenyl]methyl}-6-oxo-2-pyrrolidin-1-yl-1,6-dihydropyrimidine-4-carboxamide]	0.85	0.37		
C[C@@H](NC(=O)c1cc(=O)[nH]c(N2CCCC2)n1)c1ccc(OC(F)(F)F)cc1 [Example 28, 6-oxo-2-pyrrolidin-1-yl-N-{(1R)-1-[4-(trifluoromethoxy)phenyl]ethyl}-1,6-dihydropyrimidine-4-carboxamide]	1.3	0.45		
CC[C@@H](NC(=O)c1cc(=O)[nH]c(N2CCCC2)n1)c1ccc(SC(F)(F)F)c(F)c1 [Example 29, N-[(1R)-1-{3-fluoro-4-[(trifluoromethyl)sulfanyl]phenyl}propyl]-6-oxo-2-pyrrolidin-1-yl-1,6-dihydropyrimidine-4-carboxamide]	0.56	0.22		
C[C@@H](NC(=O)c1cc(=O)[nH]c(N(C)C)n1)c1cc(F)c(C(F)(F)F)cc1F [Example 36, N-{(1R)-1-[2,5-difluoro-4-(trifluoromethyl)phenyl]ethyl}-2-(dimethylamino)-6-oxo-1,6-dihydropyrimidine-4-carboxamide]			4.9	7.7
CC(C)C(C)(NC(=O)c1cc(=O)[nH]c(N(C)C)n1)c1ccc(S(F)(F)(F)(F)F)cc1 (stereo not drawn) [Example 39, 2-(dimethylamino)-N-{1,2-dimethyl-1-[4-(pentafluoro-λ^6-sulfanyl)phenyl]propyl}-6-oxo-1,6-dihydropyrimidine-4-carboxamide]			8.7	12
CN(C)c1nc(C(=O)NC2(c3ccc(C(C)(C)C)cc3)CC2)cc(=O)[nH]1 [Example 46, N-[1-(4-tert-butylphenyl)cyclopropyl]-2-(dimethylamino)-6-oxo-1,6-dihydropyrimidine-4-carboxamide]			3.4	3.6
Cc1cc(C(F)(F)F)ccc1C(C)(C)NC(=O)c1cc(=O)[nH]c(N(C)C)n1 [Example 78, 2-(dimethylamino)-N-{1-methyl-1-[2-methyl-4-(trifluoromethyl)phenyl]ethyl}-6-oxo-1,6-dihydropyrimidine-4-carboxamide]			2.3	2.2
CN(C)c1nc(C(=O)NC(C)(C)c2ccc(C(F)(F)F)cc2F)cc(=O)[nH]1 [Example 82, 2-(dimethylamino)-N-{1-[2-fluoro-4-(trifluoromethyl)phenyl]-1-methylethyl}-6-oxo-1,6-dihydropyrimidine-4-carboxamide]			2	2.5
C[C@@H](NC(=O)c1cc(=O)[nH]c(N(C)C)n1)c1ccc(OC(F)(F)F)cc1F [Example 83, 2-(dimethylamino)-N-{(1R)-1-[2-fluoro-4-(trifluoromethoxy)phenyl]ethyl}-6-oxo-1,6-dihydropyrimidine-4-carboxamide]			2.3	2.4
C[C@@H](NC(=O)c1cc(=O)[nH]c(N(C)C)n1)c1ccc(C(F)(F)F)c(F)c1F [Example 84, N-{(1R)-1-[2,3-difluoro-4-(trifluoromethyl)phenyl]ethyl}-2-(dimethylamino)-6-oxo-1,6-dihydropyrimidine-4-carboxamide]			3.5	2.5
CN(C)c1nc(C(=O)N[C@@H](c2ccc(OC(F)(F)F)c(Cl)c2)C2CC2)cc(=O)[nH]1 [Example 85, N-[(R)-[3-chloro-4-(trifluoromethoxy)phenyl](cyclopropyl)methyl]-2-(dimethylamino)-6-oxo-1,6-dihydropyrimidine-4-carboxamide]	2		4.9	3.6
CC(C)[C@@H](NC(=O)c1cc(=O)[nH]c(N(C)C)n1)c1ccc(OC(F)(F)F)c(Cl)c1 [Example 86, N-{(1R)-1-[3-chloro-4-(trifluoromethoxy)phenyl]-2-methylpropyl}-2-(dimethylamino)-6-oxo-1,6-dihydropyrimidine-4-carboxamide]	0.54		2.1	1.7
C[C@H](NC(=O)c1cc(=O)[nH]c(N(C)C)n1)c1ccc(S(F)(F)(F)(F)F)cc1F [Example 117, (S)-2-(dimethylamino)-N-(1-(4-(pentafluorothio)-2-fluorophenyl)ethyl)-6-oxo-1,6-dihydropy-rimidine-4-carboxamide]			2.5	2.1
CN(C)c1nc(C(=O)NC(C)(C)c2ccc(S(F)(F)(F)(F)F)cc2)cc(=O)[nH]1 [Example 118, 2-(Dimethylamino)-N-{1-methyl-1-[4-(pentafluoro-λ^6-sulfanyl)phenyl]ethyl}-6-oxo-1,6-dihydropyrimidine-4-carboxamide]			224	140
C[C@@H](NC(=O)c1cc(=O)[nH]c(N2CCOCC2)n1)c1ccc(C(F)(F)F)cc1 [Example 132, 2-morpholin-4-yl-6-oxo-N-{(1R)-1-[4-(trifluoromethyl)phenyl]ethyl}-1,6-dihydropyrimidine-4-carboxamide]	60	30		
C[C@@H](NC(=O)c1cc(=O)[nH]c(N)n1)c1ccc(C(F)(F)F)cc1 [Example 134, 2-amino-6-oxo-N-{(1R)-1-[4-(trifluoromethyl)phenyl]ethyl}-1,6-dihydropyrimidine-4-carboxamide]	272	144		
C[C@@H](NC(=O)c1cc(=O)[nH]c(Nc2ccccn2)n1)c1ccc(C(F)(F)F)cc1 [Example 136, 6-oxo-2-(pyridin-2-ylamino)-N-{(1R)-1-[4-(trifluoromethyl)phenyl]ethyl}-1,6-dihydropyrimidine-4-carboxamide]	610	491		
C[C@@H](NC(=O)c1cc(=O)[nH]c(NC2CCCC2)n1)c1ccc(C(F)(F)F)cc1 [Example 139, 2-(cyclopentylamino)-6-oxo-N-{(1R)-1-[4-(trifluoromethyl)phenyl]ethyl}-1,6-dihydropyrimidine-4-carboxamide]	109	56		
C[C@@H](NC(=O)c1cc(=O)[nH]c(NC2CC2)n1)c1ccc(C(F)(F)F)cc1 [Example 140, 2-(cyclopropylamino)-6-oxo-N-{(1R)-1-[4-(trifluoromethyl)phenyl]ethyl}-1,6-dihydropyrimidine-4-carboxamide]	54	51		
CCN(C)c1nc(C(=O)N[C@H](C)c2ccc(C(F)(F)F)cc2)cc(=O)[nH]1 [Example 141, 2-[ethyl(methyl)amino]-6-oxo-N-{(1R)-1-[4-(trifluoromethyl)phenyl]ethyl}-1,6-dihydropyrimidine-4-carboxamide]	10.3	6		
CCN(CC)c1nc(C(=O)N[C@H](C)c2ccc(C(F)(F)F)cc2)cc(=O)[nH]1 [Example 142, 2-(diethylamino)-6-oxo-N-{(1R)-1-[4-(trifluoromethyl)phenyl]ethyl}-1,6-dihydropyrimidine-4-carboxamide]	23	16		

— patent US10285989B2, “Pyrimidinone amide compounds as PDE2 inhibitors” (Merck Sharp & Dohme Corp., priority 2015, dated 2019)
